Data: ChEMBL document CHEMBL1141346, “Psammaplysenes C and D, cytotoxic alkaloids from Psammoclemma sp” (J Nat Prod, 2007)

Key:
THP-1 = experiment: Cytotoxicity against human THP1 cells expressing P2X7 receptor after 21 hrs by Almar blue cytotoxicity assay; format: functional, cell-based; settings: THP-1, 21 h
[1] = target: T1, P2X purinoceptor 7 (Homo sapiens) (UniProt Q99572); experiment: Antagonist activity at P2X7 receptor expressed in human THP1 cells after 90 mins; format: functional, cell-based; set-up: scale not given: the % may be the effect or the level left; settings: THP-1
T1 sequence (whole entry): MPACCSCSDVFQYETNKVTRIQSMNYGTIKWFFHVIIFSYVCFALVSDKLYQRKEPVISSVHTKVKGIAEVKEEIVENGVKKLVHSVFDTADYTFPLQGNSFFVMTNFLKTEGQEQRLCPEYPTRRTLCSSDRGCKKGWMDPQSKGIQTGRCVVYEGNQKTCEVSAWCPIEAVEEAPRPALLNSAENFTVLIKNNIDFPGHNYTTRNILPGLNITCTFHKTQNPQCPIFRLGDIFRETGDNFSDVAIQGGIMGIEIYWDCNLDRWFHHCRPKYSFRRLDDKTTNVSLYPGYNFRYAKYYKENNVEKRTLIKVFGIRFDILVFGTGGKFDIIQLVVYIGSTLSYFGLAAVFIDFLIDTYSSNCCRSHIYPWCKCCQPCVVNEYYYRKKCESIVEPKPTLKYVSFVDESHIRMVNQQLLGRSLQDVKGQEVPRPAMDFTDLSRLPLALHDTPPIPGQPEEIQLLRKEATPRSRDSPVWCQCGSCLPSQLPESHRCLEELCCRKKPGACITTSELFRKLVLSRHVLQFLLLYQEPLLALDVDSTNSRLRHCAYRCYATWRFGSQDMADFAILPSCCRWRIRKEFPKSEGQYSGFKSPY

Row | SMILES | IC50 (THP-1) | Activity [1]
1 | CN(C)CCCOc1ccc(/C=C/C(=O)N(C)CCCOc2c(Br)cc(CCN(C)C)cc2Br)cc1Br [PSAMMAPLYSENE C] | 7 µM | 44%
2 | CN(C)CCCOc1c(Br)cc(/C=C/C(=O)N(C)CCCOc2c(Br)cc(CCN(C)C)cc2Br)cc1Br [PSAMMAPLYSENE D] | 7 µM | 72%
